Experimental data: PubChem BioAssay (NCI)
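Cells were grown in 96-well plates and exposed to each compound for 48 hours at five concentrations; endpoints were interpolated linearly between bracketing concentrations, or set to the highest concentration if not reached. GI50 marks 50% less growth. The concentration for full growth arrest is given as TGI.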

Legend:
Assay in all cases: DTP human tumour cell line panel, 48 h
[1] = tested on: 786-0 renal
[2] = tested on: A498 renal
[3] = tested on: A549 NSCLC
[4] = tested on: ACHN renal
[5] = tested on: BT-549 breast
[6] = tested on: CAKI-1 renal
[7] = tested on: CCRF-CEM leukemia
[8] = tested on: COLO 205 colon
[9] = tested on: DU-145 prostate
[10] = tested on: EKVX NSCLC
[11] = tested on: HCC-2998 colon
[12] = tested on: HCT-116 colon
[13] = tested on: HCT-15 colon
[14] = tested on: HL-60(TB) leukemia
[15] = tested on: HOP-62 NSCLC
[16] = tested on: HOP-92 NSCLC
[17] = tested on: HS 578T breast
[18] = tested on: HT29 colon
[19] = tested on: IGROV1 ovarian
[20] = tested on: K-562 leukemia
[21] = tested on: KM12 colon
[22] = tested on: LOX IMVI melanoma
[23] = tested on: M14 melanoma
[24] = tested on: MALME-3M melanoma
[25] = tested on: MCF7 breast
[26] = tested on: MDA-MB-231 breast
[27] = tested on: MDA-MB-435
[28] = tested on: MOLT-4 leukemia
[29] = tested on: NCI-H226 lung

Nc1nc2c(c3ncccc13)C(c1cccc(Br)c1)Cc1ncccc1-2 (configuration not stated)
GI50 [1]: 1.36 µM | TGI [1]: 12 µM | GI50 [2]: 0.304 µM | TGI [2]: 1.6 µM | GI50 [3]: 1.88 µM | TGI [3]: 39.2 µM | GI50 [4]: 1.84 µM | TGI [4]: 34.8 µM | GI50 [5]: 0.681 µM | TGI [5]: 6.16 µM | GI50 [6]: 0.749 µM | TGI [6]: 50.4 µM | GI50 [7]: 0.726 µM | TGI [7]: 38.6 µM | GI50 [8]: 0.665 µM | TGI [8]: 3.81 µM | GI50 [9]: 1.13 µM | TGI [9]: 13.7 µM | GI50 [10]: 3.07 µM | TGI [10]: 80.8 µM | GI50 [11]: 2.83 µM | TGI [11]: 13.7 µM | GI50 [12]: 0.442 µM | TGI [12]: 11.4 µM | GI50 [13]: 0.504 µM | TGI [13]: 15.1 µM | GI50 [14]: 0.291 µM | TGI [14]: 7.86 µM | GI50 [15]: 0.88 µM | TGI [15]: 21.5 µM | GI50 [16]: 0.95 µM | TGI [16]: 15.5 µM | GI50 [17]: 2.9 µM | TGI [17]: 23.5 µM | GI50 [18]: 0.422 µM | TGI [18]: 11.4 µM | GI50 [19]: 2.64 µM | TGI [19]: 34.3 µM | GI50 [20]: 0.539 µM | TGI [20]: > 100 µM | GI50 [21]: 0.433 µM | TGI [21]: 13.1 µM | GI50 [22]: 0.647 µM | TGI [22]: 15.9 µM | GI50 [23]: 0.509 µM | TGI [23]: 12.6 µM | GI50 [24]: 11.5 µM | TGI [24]: 31.4 µM | GI50 [25]: 0.37 µM | TGI [25]: 18.1 µM | GI50 [26]: 1.65 µM | TGI [26]: 18 µM | GI50 [27]: 0.256 µM | TGI [27]: 0.761 µM | GI50 [28]: 0.705 µM | TGI [28]: 31.8 µM | GI50 [29]: 18.8 µM
